Measurements as given in US20260167638A1, “PHARMACEUTICAL COMPOUND, SALTS THEREOF, FORMULATIONS THEREOF, AND METHODS OF MAKING AND USING SAME” (Genentech, Inc., priority 2018, published 2026).
“And” between values parts separate entries of the source, which are not always exact repeats. Equal entries are not always repeated.

Tests used:
[1] = Example 21 crossover pharmacokinetics of mono-tosylate and di-tosylate tablets in fasted dogs; assay type: in vivo, beagle dogs; design: Plasma concentration of Compound I at 0.25 hours: unit: ng/mL; conditions: Example 21, fasted dogs, 200 mg tablet PO
Protocol: (§1) Pharmacokinetics parameters of formulations of Compound I and its salts in dogs were determined by orally administering a test formulation tablet at 200 mg of active (Compound I or salt) per dog.
(§2) Blood samples were taken at various times after administration, plasma prepared, and submitted to analysis for parent drug using a qualified LC-MS-MS assay. Pharmacokinetics parameters derived from the plasma analytical data were determined using non-compartmental analysis.
Pharmacokinetics of Compound I were determined in pentagastrin-pretreated male beagle dogs following a single oral (PO) administration at 200 mg/tablet per dog in a 2-phase crossover designed study, with a washout period of at least 7 days in between each phase. Five male, non-naive, purebred beagle dogs were used in each phase of the 2-phase crossover study. All dogs were pretreated with pentagastrin (6 μg/kg intramuscular administrations) approximately 30 minutes before test article administration.
Two tablet formulations (mono-tosylate and di-tosylate, as described above) of test article were assessed. Animals were fasted overnight prior to PO dosing through approximately 4 hours post-dose. The tablet was administered orally, followed by approximately 10 mL of reverse osmosis water. Phase 1 animals were given tablets containing Compound I mono-tosylate, and phase 2 animals were given tablets containing Compound I di-tosylate salt. Blood samples were collected pre-dose and at 0.25, 0.5. 1. 2, 4, 8, 24, 36, and 48 hours after the oral dose. Plasma was harvested, and the concentration of Compound I in each plasma sample was determined by an LC/MS/MS assay. The assay lower limit of quantitation was 20 ng/mL for Compound I. Mean Compound I concentrations measured in plasma were used to construct semi-logarithmic plasma concentration-time curves (FIG. 1). Pharmacokinetic analysis was performed using non-compartmental methods.

[2] = Example 19 crossover pharmacokinetics of four oral tablet formulations in fasted dogs; assay type: in vivo, beagle dogs; conditions: Example 19, fasted dogs, 200 mg tablet PO; for concentration at 1 h: read-out: Plasma concentration of Compound I at 1 hour; for concentration at 24 h: read-out: Plasma concentration of Compound I at 24 hours
Protocol: as §1, §2
Pharmacokinetics of Compound I was determined in pentagastrin-pretreated male beagle dogs following a single oral (PO) administration at 200 mg/tablet/dog in a 4-phase crossover study with a washout period of at least 7 days in between each phase. Five male non-naive purebred beagle dogs were used in each phase of study. All dogs were pretreated with pentagastrin (6 μg/kg intramuscular administrations) approximately 30 minutes before administration of test article.
Four tablet formulations of test article were assessed, each containing 200 mg test article (free base equivalent). Animals were fasted overnight prior to PO dosing through approximately 4 hours postdose. The tablet dose was administered orally, followed by approximately 10 mL of RO (reverse osmosis) water. Phase 1 animals were given tablets containing Compound I in nanosuspension formulation as described above, phase 2 animals were given tablets containing Compound I in jet-milled form as described above, and phase 4 animals received tablets containing Compound I mono-tosylate salt as described above. In phase 3, tablets including an amorphous solid dispersion as described above were crushed and suspended in water, then dosed to the animals. Each animal received one triturated tablet, which was administered orally by gavage as an aqueous suspension formulation. Blood samples were collected predose and at 0.25, 0.5 1, 2, 4, 8, 24, 36 and 48 hours after the oral dose. Plasma was harvested, and the concentration of Compound I in each sample was determined by a non-validated LC/MS/MS assay. The assay limit of quantitation was 1.02 to 5.1 ng/mL for Compound I.
Mean Compound I concentrations measured in plasma were used to construct semi-logarithmic plasma concentration-time curves (FIG. 13). Pharmacokinetic analysis was performed using a non-compartmental method.

[3] = Water sorption / dynamic vapor sorption (DVS) hygroscopicity; assay type: physicochemical
Protocol: The pKa value of Compound I free base was calculated (ACD Labs pKa DB, v10.0) as 2.12±0.33. Therefore, Compound I free base was considered as a very weak base that could be protonated by strong acids. […] A sample of Compound I free base was analyzed by powder x-ray diffraction and found to be crystalline without any readily detectable amorphous content. […] (onset temperature).
The maximum water uptake for the amorphous salt was about 40% whereas the maximum water uptake for the crystalline di-hydrochloride salt was higher, with about 54% uptake.
The hygroscopic nature of the besylate salt was examined by dynamic vapor sorption analysis (DVS). […] Below 80% relative humidity not much water was adsorbed.

[4] = individual subjects, LLOQ 20 ng/mL, mono-tosylate salt
[5] = individual subjects, mono-tosylate salt
[6] = male, beagle, dog, plasma, po, 200 mg, mean
[7] = male, beagle, dog, plasma, po, 200 mg, mean, read-out: AUC0-rt
[8] = male, beagle, dog, plasma, po, 200 mg, mean, read-out: Cmax
[9] = individual subjects, LOQ 1.02 to 5.1 ng/mL, mono-tosylate salt
[10] = male, beagle, dog, plasma, po, 200 mg/tablet/dog, individual subjects, LOQ 1.02 to 5.1 ng/mL
[11] = male, beagle, dog, plasma, po, 200 mg/tablet/dog, mean, LOQ 1.02 to 5.1 ng/mL

Plasma concentration of Compound I at 48 hours ([1]; individual subjects, LLOQ 20 ng/mL): BLQ | Plasma concentration of Compound I at 0.25 hours [1, 4]: 179 and 452 and 100 and 74.0 and 161 | Plasma concentration of Compound I at 0.5 hours [1, 4]: 1180 and 3040 and 1320 and 3170 | Plasma concentration of Compound I at 8 hours [1, 4]: 1140 and 3110 and 5060 and 5380 and 378 | Plasma concentration of Compound I at 24 hours [1, 4]: 95.5 and 4080 and 252 and 1050 and 25.7 | Plasma concentration of Compound I at 36 hours [1, 4]: BLQ (3×) and 897 and 74.4 | Plasma concentration of Compound I at 48 hours ([1]; mean, LLOQ 20 ng/mL): BLQ | AUC(0-t) [1, 6]: 70.2 µg·h/mL | AUC [1, 7]: 70.9 µg·h/mL | Cmax [1, 8]: 6.48 µg/mL | concentration at 0.25 h ([1]; male, beagle, dog, plasma, po, 200 mg/tablet per dog, mean, LLOQ 20 ng/mL, read-out: Plasma concentration of Compound I at 0.25 hours): 0.193 µg/mL | concentration at 0.5 h ([1]; male, beagle, dog, plasma, po, 200 mg/tablet per dog, mean, LLOQ 20 ng/mL, read-out: Plasma concentration of Compound I at 0.5 hours): 1.91 µg/mL | concentration at 1 h ([1]; male, beagle, dog, plasma, po, 200 mg/tablet per dog, mean, LLOQ 20 ng/mL, read-out: Plasma concentration of Compound I at 1 hour): 4.69 µg/mL | concentration at 2 h ([1]; male, beagle, dog, plasma, po, 200 mg/tablet per dog, mean, LLOQ 20 ng/mL, read-out: Plasma concentration of Compound I at 2 hours): 6.48 µg/mL | concentration at 4 h ([1]; male, beagle, dog, plasma, po, 200 mg/tablet per dog, mean, LLOQ 20 ng/mL, read-out: Plasma concentration of Compound I at 4 hours): 5.73 µg/mL | concentration at 8 h ([1]; male, beagle, dog, plasma, po, 200 mg/tablet per dog, mean, LLOQ 20 ng/mL, read-out: Plasma concentration of Compound I at 8 hours): 3.01 µg/mL | concentration at 24 h ([1]; male, beagle, dog, plasma, po, 200 mg/tablet per dog, mean, LLOQ 20 ng/mL, read-out: Plasma concentration of Compound I at 24 hours): 1.1 µg/mL | concentration at 36 h ([1]; male, beagle, dog, plasma, po, 200 mg/tablet per dog, mean, LLOQ 20 ng/mL, read-out: Plasma concentration of Compound I at 36 hours): 0.486 µg/mL | tmax ([1]; male, beagle, dog, plasma, mean, read-out: tmax): 2 h | Plasma concentration of Compound I at 0.25 hours [2, 9]: 309 and 1500 and 2900 and 39.7 and 571 | Plasma concentration of Compound I at 0.5 hours [2, 9]: 3650 and 3910 and 5440 and 726 and 3520 | Plasma concentration of Compound I at 1 hour [2, 9]: 5470 and 7310 and 4880 and 5360 | Plasma concentration of Compound I at 8 hours [2, 9]: 3650 and 6910 and 2500 and 3060 and 1630 | Plasma concentration of Compound I at 24 hours [2, 9]: 597 and BLQ (3×) | Plasma concentration of Compound I at 36 hours [2, 9]: 11.0 and 17.8 and BLQ (2×) and 842 | Plasma concentration of Compound I at 48 hours [2, 9]: BLQ (3×) and 200 and 10.1 | tmax [2, 5]: 1.00 h | AUC(0-t) [2, 6]: 78.5 µg·h/mL | AUC [2, 7]: 78.9 µg·h/mL | Cmax [2, 8]: 8.1 µg/mL | tmax ([2]; male, beagle, dog, plasma, po, 200 mg, mean, read-out: tmax): 1.8 h | concentration at 1 h [2, 10]: 9.45 µg/mL | concentration at 24 h [2, 10]: 0.352 µg/mL | concentration at 0.25 h ([2]; male, beagle, dog, plasma, po, 200 mg/tablet/dog, mean, LOQ 1.02 to 5.1 ng/mL, read-out: Plasma concentration of Compound I at 0.25 hours): 1.06 µg/mL | concentration at 0.5 h ([2]; male, beagle, dog, plasma, po, 200 mg/tablet/dog, mean, LOQ 1.02 to 5.1 ng/mL, read-out: Plasma concentration of Compound I at 0.5 hours): 3.45 µg/mL | concentration at 1 h [2, 11]: 6.49 µg/mL | concentration at 2 h ([2]; male, beagle, dog, plasma, po, 200 mg/tablet/dog, mean, LOQ 1.02 to 5.1 ng/mL, read-out: Plasma concentration of Compound I at 2 hours): 6.96 µg/mL | concentration at 4 h ([2]; male, beagle, dog, plasma, po, 200 mg/tablet/dog, mean, LOQ 1.02 to 5.1 ng/mL, read-out: Plasma concentration of Compound I at 4 hours): 6.78 µg/mL | concentration at 8 h ([2]; male, beagle, dog, plasma, po, 200 mg/tablet/dog, mean, LOQ 1.02 to 5.1 ng/mL, read-out: Plasma concentration of Compound I at 8 hours): 3.55 µg/mL | concentration at 24 h [2, 11]: 1.07 µg/mL | concentration at 36 h ([2]; male, beagle, dog, plasma, po, 200 mg/tablet/dog, mean, LOQ 1.02 to 5.1 ng/mL, read-out: Plasma concentration of Compound I at 36 hours): 0.29 µg/mL | concentration at 48 h ([2]; male, beagle, dog, plasma, po, 200 mg/tablet/dog, mean, LOQ 1.02 to 5.1 ng/mL, read-out: Plasma concentration of Compound I at 48 hours): 0.105 µg/mL | reversibility of water adsorption within the timeframe of observation [3]: essentially reversible
SMILES: Cc1ccc(S(=O)(=O)O)cc1.Cn1cc(-c2cn(-c3ccc(OC(F)(F)F)cc3)c(=O)c3ncn(C)c23)cn1 [mono-tosylate, 1-methyl-7-(1-methyl-1H-pyrazol-4-yl)-5-(4-(trifluoromethoxy)phenyl)-1,5-dihydro-4H-imidazo[4,5-c]pyridin-4-one, mono-tosylate salt]
Plasma concentration of Compound I at 4 hours [1, 4]: 3550 and 5080 and 7990 and 10200 and 1850 | AUC0-last [1, 5]: 26.9 µg·h/mL and 122 µg·h/mL and 77.9 µg·h/mL and 110 µg·h/mL and 14 µg·h/mL | AUC0-rt [1, 5]: 27.4 µg·h/mL and 123 µg·h/mL and 79.4 µg·h/mL and 110 µg·h/mL and 14.1 µg·h/mL | Cmax [1, 5]: 3.57 µg/mL and 5.94 µg/mL and 9.41 µg/mL and 10.5 µg/mL and 2.96 µg/mL | Plasma concentration of Compound I at 2 hours [2, 9]: 9370 and 10200 and 5680 and 5450 and 4130 | Plasma concentration of Compound I at 4 hours [2, 9]: 8040 and 12900 and 4590 and 4840 and 3480 | AUC0-last [2, 5]: 76.5 µg·h/mL and 116 µg·h/mL and 44.3 µg·h/mL and 122 µg·h/mL and 34.2 µg·h/mL | AUC0-rt [2, 5]: 76.6 µg·h/mL and 116 µg·h/mL and 44.4 µg·h/mL and 123 µg·h/mL and 34.3 µg·h/mL | Cmax [2, 5]: 9.45 µg/mL and 12.9 µg/mL and 7.31 µg/mL and 5.45 µg/mL and 5.36 µg/mL
